“And” between values parts separate entries of the source, which are not always exact repeats. Equal entries are not always repeated.
System: 922993-354-T-J3-PDC complex spheroids, viability
Assay: Anticancer human tumor 922993-354-T-J3-PDC patient-derived endometrial carcinoma cell line growth inhibition [GQUAD]
Settings: for viability, T/C: stronger effect = lower value
Description: DNA G-quadruplex Stabilizer Agents in Combinations in Complex Spheroids
A high-throughput screen of multi-cell type tumor spheroids was designed to identify active combinations of DNA G-quadruplex stabilizer agents and targeted small molecules. Complex spheroids include a stromal component modeled by human endothelial cells (HUVEC) and fibroblasts modeled by human mesenchymal stem cells (MSCs). The concentration ranges selected for each drug and investigational agent were based upon clinically achievable concentrations if the clinical Cmax of the agent was known.
Compounds. The drugs and investigational agents: pidnarulex (CX-5461; NSC782164), APTO-253 (NSC789042), BRACO-19 (NSC847499), peposertib (NSC802822), ceralasertib (NSC780249), elimusertib (NSC800525), camonsertib (NSC841442), AZD-1390 (NSC803789), olaparib (NSC753686), talazoparib (NSC767125), ART-558 (NSC835418), sotorasib (NSC818433), MRTX-1133 (NSC836407), SN-38 (NSC673596), topotecan (NSC609699), etoposide (NSC141540), doxorubicin (NSC123127), gemcitabine (NSC613327), 5-fluorouracil (NSC19893), paclitaxel (NSC125973), vemurafenib (NSC761431), panobinostat (NSC761190), R-306465 (JNJ-16241199; NSC773264), adavosertib (NSC754352), TP-3654 (NSC805149), carboplatin (NSC241240), KSQ-4279 (NSC840948), and staurosporine (NSC755774) were obtained from the National Cancer Institute (NCI) Developmental Therapeutics Program Chemical Repository (34). The FDA-approved anticancer drug set is available from the NCI Developmental Therapeutics Program. […] The stock solutions were prepared in dimethyl sulfoxide (DMSO, Sigma-Aldrich, St. Louis, MO, cat. D2650) at 800-fold the tested concentration and stored at -70 degrees C prior to their use. All drugs and investigational agents were tested over a range starting from a high concentration at or near the clinical Cmax and decreasing in half-log increments. If the clinical Cmax for an agent had not been determined, the highest concentration tested was 10 microM.
2.3 Cell Culture. All cells were maintained in an incubator at 37 degrees C and 5% CO2 with 95% humidity. The PDC lines were cultured according to standard operating procedures established by the NCI PDMR. All PDCs were thawed and cultured in Matrigel-coated flasks prepared with a working solution of 1X Ham's F-12 nutrient mix, without supplementation (Invitrogen, cat. 11765054), 100 U/mL penicillin-streptomycin (Invitrogen, cat. 15140122), and 2.5% Matrigel (Corning Inc., cat. 354248) for the first three passages. The 857933-349-R-J2-PDC line was cultured in 6C/Colon 1B media, which includes advanced DMEM/F-12 (Thermo Fisher Scientific, cat. 12634028), 10 mM HEPES (Thermo Fisher Scientific, cat. 15630080), 1X GlutaMAX supplement (Thermo Fisher Scientific, cat. 35050061), 0.1 mg/mL primocin (InvivoGen, cat. ant-pm-2), 10% defined fetal bovine serum, heat inactivated (HyClone Laboratories Inc., cat. SH30070.03HI), 50% L-WRN conditioned media (ATCC, cat. CRL-3276), 1.25 mM N-Acetyl-L-cysteine (Sigma-Aldrich, cat. A9165), 10 mM nicotinamide (Sigma-Aldrich, cat. N0636), 1X B-27 supplement (Thermo Fisher Scientific, cat. 17504044), 1X N-2 supplement (Thermo Fisher Scientific, cat. 17502048), 10 microM Y-27632 dihydrochloride (Tocris Bioscience, cat. 1254), and 50 ng/mL human EGF recombinant protein (Thermo Fisher Scientific, cat. PHG0311). The 485176-168-R4-J1-PDC line was cultured in Panc media, which includes all 6C/Colon 1B media components plus 100 ng/mL human FGF-10 (Thermo Fisher Scientific, cat. 100-26), 500 nM SB-431542 (Selleckchem, cat. S1067), and gastrin (Tocris, cat. 3006).
[…]
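Also: spheroids exposed to compounds for seven days.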
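For viability, T/C in this document: 100% = DMSO vehicle control viability.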

Structure (SMILES): CC[C@@]1(O)C(=O)OCc2c1cc1n(c2=O)Cc2cc3c(CN(C)C)c(O)ccc3nc2-1
- viability, T/C (compound 0.000999 µM): 111% and 105% and 82.9%
- viability, T/C (compound 0.00316 µM): 80.6% and 108% and 97.9%
- viability, T/C (compound 0.00999 µM): 113% and 76.5% and 112%
- viability, T/C (compound 0.0316 µM): 85.2% and 98.8% and 103%
- viability, T/C (compound 0.0999 µM): 71% and 84.4% and 94.9%
- viability, T/C (compound 0.316 µM): 48.6% and 38.9% and 38.2%
- IC50 (curve of compound): 298 nM and 241 nM and 249 nM

Structure (SMILES): C=CC(=O)N1CCN(c2nc(=O)n(-c3c(C)ccnc3C(C)C)c3nc(-c4c(O)cccc4F)c(F)cc23)C(C)C1 (centres undefined) + Cc1cnc(CNC(=O)c2c(=O)c3ccc(N4CCCN(C)CC4)nc3n3c2sc2ccccc23)cn1
- IC50 (curve of first compound, second compound 0.0316 µM): > 10000 nM
- IC50 (curve of first compound, second compound 0.1 µM): > 10000 nM
- IC50 (curve of first compound, second compound 0.316 µM): > 10000 nM
- IC50 (curve of first compound, second compound 1 µM): > 10000 nM
- IC50 (curve of first compound, second compound 3.16 µM): > 10000 nM
- IC50 (curve of first compound, second compound 10 µM): 31.6 nM
- viability, T/C (second compound 0.0316 µM, first compound 0.0316 µM): 109%
- viability, T/C (second compound 0.0316 µM, first compound 0.1 µM): 89.1%
- viability, T/C (second compound 0.0316 µM, first compound 0.316 µM): 79.2%
- viability, T/C (second compound 0.0316 µM, first compound 1 µM): 99.5%
- viability, T/C (second compound 0.0316 µM, first compound 3.16 µM): 80.4%
- viability, T/C (second compound 0.0316 µM, first compound 10 µM): 100%
- viability, T/C (second compound 0.1 µM, first compound 0.0316 µM): 71.2%
- viability, T/C (second compound 0.1 µM, first compound 0.1 µM): 73.2%
- viability, T/C (second compound 0.1 µM, first compound 0.316 µM): 52.8%
- viability, T/C (second compound 0.1 µM, first compound 1 µM): 67%
- viability, T/C (second compound 0.1 µM, first compound 3.16 µM): 77.2%
- viability, T/C (second compound 0.1 µM, first compound 10 µM): 53.9%
- viability, T/C (second compound 0.316 µM, first compound 0.0316 µM): 49.1%
- viability, T/C (second compound 0.316 µM, first compound 0.1 µM): 57.5%
- viability, T/C (second compound 0.316 µM, first compound 0.316 µM): 51.8%
- viability, T/C (second compound 0.316 µM, first compound 1 µM): 53.1%
- viability, T/C (second compound 0.316 µM, first compound 3.16 µM): 55.1%
- viability, T/C (second compound 0.316 µM, first compound 10 µM): 61.9%
- viability, T/C (second compound 1 µM, first compound 0.0316 µM): 55.2%
- viability, T/C (second compound 1 µM, first compound 0.1 µM): 61.1%
- viability, T/C (second compound 1 µM, first compound 0.316 µM): 46.9%
- viability, T/C (second compound 1 µM, first compound 1 µM): 47.7%
- viability, T/C (second compound 1 µM, first compound 3.16 µM): 53.8%
- viability, T/C (second compound 1 µM, first compound 10 µM): 55.1%
- viability, T/C (second compound 3.16 µM, first compound 0.0316 µM): 53.9%
- viability, T/C (second compound 3.16 µM, first compound 0.1 µM): 55.9%
- viability, T/C (second compound 3.16 µM, first compound 0.316 µM): 55.4%
- viability, T/C (second compound 3.16 µM, first compound 1 µM): 51.3%
- viability, T/C (second compound 3.16 µM, first compound 3.16 µM): 65.7%
- viability, T/C (second compound 3.16 µM, first compound 10 µM): 53.7%
- viability, T/C (second compound 10 µM, first compound 0.0316 µM): 52.5%
- viability, T/C (second compound 10 µM, first compound 0.1 µM): 58.1%
- viability, T/C (second compound 10 µM, first compound 0.316 µM): 53.2%
- viability, T/C (second compound 10 µM, first compound 1 µM): 46%
- viability, T/C (second compound 10 µM, first compound 3.16 µM): 64%
- viability, T/C (second compound 10 µM, first compound 10 µM): 70%

— PubChem BioAssay AID2060489 (Molecular Pharmacology Branch, DTP, NCI, 2025)
